In patent US4228160A (priority 1978, dated 1980):
Converted amounts (≈) assume the structure as drawn. Read-outs that look alike come from different tables or passages of the source.

How the values were obtained:
[1] = Solubility tests at different pH; assay type: physicochemical; conditions: pH=2
[2] = Stability in solubility test (thin layer chromatography); assay type: physicochemical; conditions: under the conditions of the solubility tests
[3] = Diffusion test through semipermeable membrane; assay type: physicochemical
Text: The two sides of a diffusion cell are separated by a semipermeable membrane.

ovariectomized rat = test: Pregnancy protective activity in the ovariectomized rat; assay type: in vivo, rat (CFY strain); conditions: per os
Text: Test animal: female rat of an average weight of 308 g., derived from 18 CFY strain
The ovary of the animals was removed on the 17th day of pregnancy and the animals were placed individually in cages.
6 animals were used as control.
On the 19th day and 20th day in the morning of the pregnancy the treatment was repeated.

inflammation = test: Speed of onset and duration of antiinflammatory activity, Carrageenin feet inflammation; assay type: in vivo, rat (female, strain CFY); conditions: simultaneous administration with Carrageenin (FIG. 5)
Procedure: The test compound, the reference substance, the animals, the treatment, doses, investigation are all the same as described above. The differences can be found below.
In this series of tests the following investigations were carried out:
2. Carrageenin was given 1, 2 and 3 hours after the administration of the antiinflammatory agent and the results were evaluated after 3 hours. The animals were exterminated with ether and the weight of the separated untreated feet and feet treated with Carrageenin was measured. The feet were separated above the metacarpus.
The weight difference of the untreated and treated feet in the same animal was calculated. […] The antiinflammatory activity was calculated in percent and the results are plotted in FIGS. 4 and 5.

in vivo = test: in vivo; parameters: species or system rat (CFY strain); conditions: rat, in vivo, po, 5 mg./kg. p.o.
Procedure: (§1) Subacute toxicity test was carried out in male and female animals derived from CFY strain and 10--10 animals were treated for each substance and for male and female rats each.
(§2) At the beginning of the investigation the animals were 7 weeks old and weighed 150-170 g. The animals were kept at a constant temperature (22°-24° C.) and under constant relative humidity (45-50%). During treatment the animals were on a standard diet and drank water ad libitum.
(§3) The animals were treated daily at the same time of the day, in the morning. The test compound and the reference substance were administered in the form of a suspension prepared with 1% methyl cellulose through an oesophagial sound. The animals of the control group obtained 1% methyl cellulose per os. The weight increase of the animals and their clinical states were registered during the treatment every week.
(§4) 1. Control: 1% methyl cellulose suspension 0.2 ml./100 g. per os;
(§5) Investigation: the animals were treated for 28 days.

rat [4] = test: in vivo; parameters: species or system rat (CFY strain)
Procedure: as §1, §2, §3, §4, §5

rat [5] = assay type: in vivo, rat (Long-Evans strain)
Procedure: As a reference compound pure Indomethacin is used.
Subacute toxicity test was carried out in male and female animals derived from Long-Evans strain, 10--10 animals were treated for each test compound and both for female and male animals. At the beginning of the test the animals were 7 week old, of an average bodyweight of 140-160 g. The animals were kept at constant temperature (22°-24° C.) and under constant relative humidity (45-50%). During the treatment the animals were on a standard diet and drank water ad libitum.
The subacute toxicity test corresponds to a 4 weeks' treatment period. The animals were treated daily at the same time in the morning. The complex of a molar ratio 1:1 and the reference substance were administered in the form of a suspension in 1% methyl cellulose through an oesophaged sound. The animals of the control group get 1% methyl cellulose per os. The weight increase and the clinical state of the animals were registered during the treatment every week.
1. Control: 1% methyl cellulose, 0.2 ml./100 g. per os
The animals were treated for 28 days. On the 29th day the living animals were exterminated with ether and the stomach and the duodenum were prepared. Also the stomach and duodenum of the animals perished during the treatment were prepared.
In each case the mucous membrane of the stomach, bile and intestine were examined macroscopically and the number of the eventual ulcers and erosions was determined.

[6] = cited from earlier work
[7] = aqueous solution, cited from earlier work
[8] = number related to treated animals, 28 days p.o., 40.3 mg./kg. CD-Ind or 5.0 mg./kg. Ind., control 0/10
[9] = 16 mg./kg. 1:1 complex or 5 mg./kg. Indomethacin p.o., control 0/10
[10] = 28 days, 16 mg./kg 1:1 complex or 5 mg./kg. Indomethacin p.o., control 0/10

COc1ccc2c(c1)c(CC(=O)O)c(C)n2C(=O)c1ccc(Cl)cc1 [Indomethacin, 1-(p-Chloro-benzoyl)-5-methoxy-2-methyl-indol-3-acetic acid]
solubility [1]: substantially insoluble
decomposition of Indomethacin [2]: not decomposed
time to equilibrium ([3]; pure buffer on other side): 4 h
distribution of Indomethacin ([3]; β-cyclodextrin buffer solution on other side, 4 hours): more Indomethacin on the β-cyclodextrin side after 4 hours, than on the Indomethacin side
foetus retention compared with the control (ovariectomized rat): significantly increased the percentage of the foetus retention
foeti left alive (ovariectomized rat; 1.25 mg./kg. Indomethacin on 18th day, repeated 19th and 20th day, dissected 21st day, control 16.1%): 58.8%
antiinflammatory activity 6 hours after treatment (inflammation): inflammation increases after 6 hours
mortality at 336 h (in vivo; by the 14th day, read-out: dead animals, male): 80%
mortality at 504 h (in vivo; by the 21st day, read-out: dead animals, female): 60%
erosion, female (rat [4]; [8]): 7/10
ulcer, female (rat [4]; [8]): 6/10
ulcer, male (rat [4]; [8]): 7/10
erosion, male (rat [4]; number related to treated animals, 28 days p.o., 40.3 mg./kg. CD-Ind or 5.0 mg./kg. Ind., control 1/10): 9/10
Average body weight (rat [4]; week 0, control 152.5): 164.5 g
Average body weight (rat [4]; week 0, control 154.5): 161.5 g
Average body weight (rat [4]; week 1, control 183.0): 182.0 g
Average body weight (rat [4]; week 1, control 196.5): 210.7 g
Average body weight (rat [4]; week 2, control 209.0): 177.5 g
Average body weight (rat [4]; week 2, control 240.5): 212.5 g
Average body weight (rat [4]; week 3, control 222.0): 206.5 g
Average body weight (rat [4]; week 3, control 276.5): 287.5 g
Average body weight (rat [4]; week 4, control 241.0): 221.2 g
Average body weight (rat [4]; week 4, control 300.5): 320.0 g
animals with ulcers, female (rat [5]; 5 mg./kg.): 70%
animals with ulcers, male (rat [5]; 5 mg./kg.): 80%
Lethality, 7th day, female (rat [5]; [9]): 1/10
Lethality, 7th day, male (rat [5]; [9]): 4/10
Lethality, 14th day, female (rat [5]; [9]): 2/10
Lethality, 14th day, male (rat [5]; [9]): 4/10
Lethality, 21st day, female (rat [5]; [9]): 3/10
Lethality, 21st day, male (rat [5]; [9]): 5/10
Lethality, 28th day, female (rat [5]; [9]): 6/10
Lethality, 28th day, male (rat [5]; [9]): 6/10
ulcer, female (rat [5]; [10]): 7/10
ulcer, male (rat [5]; [10]): 8/10
erosion, female (rat [5]; 28 days, 16 mg./kg 1:1 complex or 5 mg./kg. Indomethacin p.o., control 2/10): 10/10
erosion, male (rat [5]; 28 days, 16 mg./kg 1:1 complex or 5 mg./kg. Indomethacin p.o., control 3/10): 10/10
clinical symptoms (rat [5]; from third day, 5 mg./kg. Indomethacin or 16 mg./kg. 1:1 complex): bradypnoe and depression
original solubility ([6]; 35° C., aqueous, without cyclodextrin): 350 µM
solubility increased by cyclodextrin ([6]; aqueous solution with cyclodextrin): 980 µM (≈ 351 µg/mL)
solubility increase ([6]; with cyclodextrin vs original): 2.8 times
hydrolysis ([7]; in the presence of glucose): hydrolyses rapidly
hydrolysis ([7]; in the presence of α-cyclodextrin): slowly
hydrolysis ([7]; in the presence of β-cyclodextrin): inhibits hydrolysis
